Measured values: the supplement of paper PMC10307832

Assays:
Experiment in all cases: relative viability (nuclei count vs DMSO), 5 days (fraction); higher = more cells survive
[1] = compound: NCC(=O)Nc1ccc(-n2nc(C(F)(F)F)cc2-c2ccc3c(ccc4ccccc43)c2)cc1 + Cc1nc(Nc2ncc(C(=O)Nc3c(C)cccc3Cl)s2)cc(N2CCN(CCO)CC2)n1 [Dasatinib] (partner 0.075 µM)
In short: (§1)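 After 5 days of treatment, lung cancer cells in 1536-well plates were fixed and stained in a single step (final 0.05% Triton X-100, 1% formaldehyde, 1 ug/ml Hoechst) and their nuclei counted on 4× images. Treatment had been applied by pin tool the day after seeding as one drug alone or as a fixed anchor-drug dose with five library-drug doses (not always all listed) in √10 steps. Relative viability is the nuclei count of treated wells divided by that of vehicle wells, and values are medians of duplicate plates.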

[2] = compound: C1CSC2=C(C(=O)N1)SC3=C2C=C(C=C3)O [kb NB 142-70] + N=C(N)NC(=N)NCCc1ccccc1 [Phenformin] (partner 250 µM)
In short: as §1

[3] = compound: C1CSC2=C(C(=O)N1)SC3=C2C=C(C=C3)O [kb NB 142-70] + O=C(CCCCCCC(=O)Nc1ccccc1)NO [Vorinostat] (partner 1 µM)
In short: as §1

[4] = compound: NCC(=O)Nc1ccc(-n2nc(C(F)(F)F)cc2-c2ccc3c(ccc4ccccc43)c2)cc1 + O=C(CCCCCCC(=O)Nc1ccccc1)NO [Vorinostat] (partner 1 µM)
In short: as §1

| Cell Line | relative viability ([1]; first compound 0.02 µM) | relative viability ([1]; first compound 0.06325 µM) | relative viability ([1]; first compound 0.2 µM) | relative viability ([1]; first compound 0.6325 µM) | relative viability ([1]; first compound 2 µM) | relative viability ([2]; first compound 0.1 µM) | relative viability ([2]; first compound 1 µM) | relative viability ([2]; first compound 3.162 µM) | relative viability ([3]; first compound 0.1 µM) | relative viability ([3]; first compound 1 µM) | relative viability ([3]; first compound 3.162 µM) | relative viability ([4]; first compound 0.02 µM) | relative viability ([4]; first compound 0.06325 µM) | relative viability ([4]; first compound 0.2 µM) | relative viability ([4]; first compound 0.6325 µM) | relative viability ([4]; first compound 2 µM) |
| --- | --- | --- | --- | --- | --- | --- | --- | --- | --- | --- | --- | --- | --- | --- | --- | --- |
| NCI-H3122 | 0.862 | 0.837 | 0.824 | 0.912 | 0.799 | 0.412 | 0.396 | 0.347 | 0.908 | 1.08 | 0.887 | 1.03 | 0.997 | 0.995 | 0.942 | 0.797 |
| COR-L23 | 0.481 | 0.504 | 0.566 | 0.481 | 0.531 | 0.416 | 0.426 | 0.258 | 0.515 | 0.428 | 0.214 | 0.466 | 0.46 | 0.576 | 0.449 | 0.372 |
| NCI-H2087 | 0.862 | 0.854 | 0.928 | 0.762 | 0.904 | 0.432 | 0.555 | 0.411 | 0.506 | 0.687 | 0.423 | 0.752 | 0.618 | 0.809 | 0.649 | 0.668 |
| LC-2-ad | 0.478 | 0.677 | 0.609 | 0.714 | 0.577 | 0.618 | 0.536 | 0.458 | 0.726 | 0.698 | 0.71 | 0.68 | 0.757 | 0.769 | 0.673 | 0.76 |
| NCI-H1915 | 0.26 | 0.338 | 0.341 | 0.318 | 0.363 | 0.365 | 0.359 | 0.258 | 0.559 | 0.565 | 0.45 | 0.525 | 0.555 | 0.56 | 0.497 | 0.552 |
| NCI-H1793 | 0.352 | 0.431 | 0.391 | 0.404 | 0.411 | 0.285 | 0.406 | 0.42 | 0.807 | 1.02 | 0.654 | 0.758 | 0.874 | 0.699 | 0.793 | 0.86 |
| NCI-H2023 | 0.649 | 0.549 | 0.618 | 0.6 | 0.552 | 0.382 | 0.44 | 0.391 | 0.613 | 0.667 | 0.343 | 0.619 | 0.854 | 0.58 | 0.653 | 0.621 |
| COR-L 105 | 0.388 | 0.426 | 0.362 | 0.418 | 0.413 | 0.428 | 0.534 | 0.486 | 0.812 | 0.831 | 0.776 | 0.873 | 0.861 | 0.724 | 0.781 | 1.04 |
| RERF-LC-KJ | 0.809 | 0.985 | 0.835 | 0.878 | 0.76 | 0.409 | 0.463 | 0.445 | 0.729 | 0.754 | 0.677 | 0.59 | 0.652 | 0.609 | 0.758 | 0.772 |
| LXF-289 | 0.188 | 0.246 | 0.315 | 0.218 | 0.241 | 0.526 | 0.526 | 0.457 | 0.713 | 0.711 | 0.51 | 0.737 | 0.91 | 0.777 | 0.731 | 0.787 |
| PC-14 | 0.281 | 0.303 | 0.297 | 0.234 | 0.302 | 0.658 | 0.56 | 0.619 | 0.857 | 0.755 | 0.633 | 0.685 | 0.62 | – | 0.659 | 0.657 |
| NCI-H650 | 0.4 | 0.479 | 0.434 | 0.377 | 0.459 | 0.462 | 0.465 | 0.429 | 0.514 | 0.585 | 0.363 | 0.469 | 0.424 | 1.29 | 0.369 | 0.361 |
| NCI-H1666 | 0.814 | 0.793 | 0.881 | 0.814 | 0.744 | 0.558 | 0.526 | 0.467 | 1.1 | 1.05 | 0.976 | 1.03 | 1.07 | 1.13 | 0.938 | 0.944 |
| NCI-H2085 | 0.291 | 0.282 | 0.292 | 0.263 | 0.341 | 0.706 | 0.756 | 0.371 | 0.772 | 0.857 | 0.483 | 0.703 | 0.824 | 0.728 | 0.877 | 0.849 |
| NCI-H1734 | 0.468 | 0.472 | 0.513 | 0.466 | 0.438 | 0.371 | 0.346 | 0.267 | 0.829 | 0.724 | 0.538 | 0.773 | 0.848 | 0.827 | 0.773 | 0.817 |
| NCI-H2126 | 0.573 | 0.664 | 0.667 | 0.702 | 0.602 | 0.525 | 0.507 | 0.551 | 0.755 | 0.796 | 0.805 | 0.78 | 0.858 | 0.768 | 0.756 | 0.773 |
| EMC-BAC-2 | 0.316 | 0.286 | 0.325 | 0.377 | 0.338 | 0.524 | 0.501 | 0.38 | 0.556 | 0.472 | 0.16 | 0.454 | 0.511 | 0.569 | 0.514 | 0.488 |
| NCI-H1993 | 0.569 | 0.696 | 0.526 | 0.688 | 0.631 | 0.567 | 0.488 | 0.549 | 0.921 | 0.844 | 0.727 | 0.798 | 0.952 | 0.656 | 0.969 | 0.862 |
| NCI-H520 | 0.207 | 0.206 | 0.177 | 0.213 | 0.212 | 0.57 | 0.515 | 0.324 | 0.775 | 0.681 | 0.304 | 0.631 | 0.779 | 0.873 | 0.77 | 0.763 |
| NCI-H1792 | 0.605 | – | 0.915 | 0.836 | 0.726 | – | 0.297 | 0.392 | – | – | – | – | – | – | – | – |
| NCI-H1648 | – | – | – | – | – | – | – | – | 0.356 | 0.345 | 0.423 | 0.416 | 0.423 | 0.762 | 0.408 | 0.536 |
| A549 | – | – | – | – | – | 0.129 | 0.193 | 0.166 | – | – | – | – | – | – | – | – |
| NCI-H1563 | 0.47 | 0.479 | 0.477 | 0.469 | 0.525 | 0.656 | 0.688 | 0.624 | – | – | – | – | – | – | – | – |
